The text below walks through data of patent publication US9249180B2, “C-3 alkyl and alkenyl modified betulinic acid derivatives” (priority 2013, dated 2016).

The EC50 is the midpoint of the concentration-response curve.

This assay relates to recombinant NL4-3 virus (Renilla luciferase in nef, Gag P373S; NLRluc) in MT-2 cells. Kind of assay: HIV Cell Culture Assay (luciferase reporter, antiviral activity). The note with it: Renilla, NL43, MT-2 cells infected for 4-5 days with NLRluc recombinants, serial dilutions of the inhibitor. The class given is cell-based. On the procedure: HIV Cell Culture Assay—MT-2 cells and 293T cells were obtained from the NIH AIDS Research and Reference Reagent Program. MT-2 cells were propagated in RPMI 1640 media supplemented with 10% heat inactivated fetal bovine serum, […]. The 293T cells were propagated in DMEM media supplemented with 10% heat inactivated fetal bovine serum (FBS), 100 units/ml penicillin G and 100 μg/ml streptomycin. The proviral DNA clone of NL4-3 was obtained from the NIH AIDS Research and Reference Reagent Program. A recombinant NL4-3 virus, in which a section of the nef gene from NL4-3 was replaced with the Renilla luciferase gene, was used as a reference virus. In addition, residue Gag P373 was converted to P373S. Briefly, the recombinant virus was prepared by transfection of the altered proviral clone of NL4-3. Transfections were performed in 293T cells using LipofectAMINE PLUS from Invitrogen (Carlsbad, Calif.), according to manufacturer's instruction. The virus was titered in MT-2 cells using luciferase enzyme activity as a marker. Luciferase was quantitated using the Dual Luciferase kit from Promega (Madison, Wis.), with modifications to the manufacturer's protocol. The diluted Passive Lysis solution was pre-mixed with the re-suspended Luciferase Assay Reagent and the re-suspended Stop & Glo Substrate (2:1:1 ratio). Fifty (50) μL of the mixture was added to each aspirated well on assay plates and luciferase activity was measured immediately on a Wallac TriLux (Perkin-Elmer). Antiviral activities of inhibitors toward the recombinant virus were quantified by measuring luciferase activity in cells infected for 4-5 days with NLRluc recombinants in the presence serial dilutions of the inhibitor.
Consider `C=C(C)[C@@H]1CC[C@]2(NCCN3CCS(=O)(=O)CC3)CC[C@]3(C)[C@H](CC[C@@H]4[C@@]5(C)CC=C(CCCC(C(=O)O)C(=O)O)C(C)(C)[C@@H]5CC[C@]43C)[C@@H]12` [Example 5, 2-(3-((1R,3aS,5aR,5bR,7aR,11aS,11bR,13aR,13bR)-3a-((2-(1,1-dioxidothiomorpholino)ethyl)amino)-5a,5b,8,8,11a-pentamethyl-1-(prop-1-en-2-yl)-2,3,3a,4,5,5a,5b,6,7,7a,8,11,11a,11b,12,13,13a,13b-octadecahydro-1H-cyclopenta[a]chrysen-9-yl)propyl)malonic acid], for which the EC50 was 310 nM.
Under `C=C(C)[C@@H]1CC[C@]2(NCCN3CCS(=O)(=O)CC3)CC[C@]3(C)[C@H](CC[C@@H]4[C@@]5(C)CC=C(CCCC(C)(C)C(=O)O)C(C)(C)[C@@H]5CC[C@]43C)[C@@H]12` [Example 7, 5-((1R,3aS,5aR,5bR,7aR,11aS,11bR,13aR,13bR)-3a-((2-(1,1-dioxidothiomorpholino)ethyl)amino)-5a,5b,8,8,11a-pentamethyl-1-(prop-1-en-2-yl)-2,3,3a,4,5,5a,5b,6,7,7a,8,11,11a,11b,12,13,13a,13b-octadecahydro-1H-cyclopenta[a]chrysen-9-yl)-2,2-dimethylpentanoic acid] stands 5.3 nM; under `C=C(C)[C@@H]1CC[C@]2(NCCN3CCS(=O)(=O)CC3)CC[C@]3(C)[C@H](CC[C@@H]4[C@@]5(C)CC=C(C=C6CCC(C(=O)O)CC6)C(C)(C)[C@@H]5CC[C@]43C)[C@@H]12` (stereo partly drawn) [Example A1, 4-(((1R,3aS,5aR,5bR,7aR,11aS,11bR,13aR,13bR)-3a-((2-(1,1-dioxidothiomorpholino)ethyl)amino)-5a,5b,8,8,11a-pentamethyl-1-(prop-1-en-2-yl)-2,3,3a,4,5,5a,5b,6,7,7a,8,11,11a,11b,12,13,13a,13b-octadecahydro-1H-cyclopenta[a]chrysen-9-yl)methylene)cyclohexanecarboxylic acid], 3.55 nM.
Under `C=C(C)[C@@H]1CC[C@]2(NCCN3CCS(=O)(=O)CC3)CC[C@]3(C)[C@H](CC[C@@H]4[C@@]5(C)CC=C(CCCCC(=O)O)C(C)(C)[C@@H]5CC[C@]43C)[C@@H]12` [Example 4, 5-((1R,3aS,5aR,5bR,7aR,11aS,11bR,13aR,13bR)-3a-((2-(1,1-dioxidothiomorpholino)ethyl)amino)-5a,5b,8,8,11a-pentamethyl-1-(prop-1-en-2-yl)-2,3,3a,4,5,5a,5b,6,7,7a,8,11,11a,11b,12,13,13a,13b-octadecahydro-1H-cyclopenta[a]chrysen-9-yl)pentanoic acid] stands 2.27 nM.
